Patent publication US20110245228A1, “PROTEIN KINASE C ACTIVITY ENHANCER CONTAINING ALKYL ETHER DERIVATIVE OR SALT THEREOF” (Toyama Chemical Co., Ltd., priority 2006, published 2011)

Biological target: T1, PKCε (Rattus norvegicus, UniProt P09216)
T1 construct: endogenous in cells; host or cells: primary cultured cerebral cortex cells from 18-day Wistar/ST rat fetuses
T1 sequence (P09216 1-737): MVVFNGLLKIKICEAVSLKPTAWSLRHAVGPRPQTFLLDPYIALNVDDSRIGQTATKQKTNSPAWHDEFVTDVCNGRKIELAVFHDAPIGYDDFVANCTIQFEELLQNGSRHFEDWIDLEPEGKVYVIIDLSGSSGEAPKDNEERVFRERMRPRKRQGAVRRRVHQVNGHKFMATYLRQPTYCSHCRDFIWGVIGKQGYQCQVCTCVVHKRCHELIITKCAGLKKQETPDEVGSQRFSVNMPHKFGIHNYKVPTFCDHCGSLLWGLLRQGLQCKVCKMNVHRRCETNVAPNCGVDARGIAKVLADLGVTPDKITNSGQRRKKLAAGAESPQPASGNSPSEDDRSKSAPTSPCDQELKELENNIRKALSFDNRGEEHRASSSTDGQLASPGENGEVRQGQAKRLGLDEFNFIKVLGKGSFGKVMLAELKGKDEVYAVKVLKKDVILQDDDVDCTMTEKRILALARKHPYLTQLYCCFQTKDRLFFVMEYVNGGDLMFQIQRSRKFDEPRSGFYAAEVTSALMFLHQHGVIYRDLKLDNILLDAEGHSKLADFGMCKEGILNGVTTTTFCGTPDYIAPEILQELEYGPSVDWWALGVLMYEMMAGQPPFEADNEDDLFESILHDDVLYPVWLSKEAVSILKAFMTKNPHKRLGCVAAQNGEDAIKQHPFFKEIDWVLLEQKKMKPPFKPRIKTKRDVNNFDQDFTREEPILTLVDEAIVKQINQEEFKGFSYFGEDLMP
Assay: PKC activity enhancing effect in cultured cells (PKCε migration from cytosol to membrane fraction, western blotting)
Type: cell-based
Conditions: cultured cerebral cortex cells of Wistar/ST rat fetuses, 0.1 μmol/L in terms of T-817
Experimental: The PKC activity was determined, according to the method of Etcheberrigaray et al. (Proceedings of the National Academy of Sciences of the United States of America, 2004, Vol. 101, No. 30, p. 11141-11146), as applicable. At the time of activation, PKC migrates from the cytoplasm to membranes. The PKC level in the membrane fraction over that in the cytosol fraction was taken as the index of PKC activation. In this experiment, the activity of PKCε, a known isoform of PKC, was measured.
Cultured cells were prepared following the method of Hirata et al. (J. Pharmacol. Exp. Ther., 2005, Vol. 314, No. 1, p. 252-259). […]
On Day 8 from the start of the culturing, T-817MA was added to the cells to a final concentration of 0.1 μmol/L, in terms of T-817. […] The protein concentration in the cytosol fraction and the membrane fraction was measured, and the protein content in each sample was adjusted to a certain constant level with the extraction buffer or the extraction buffer containing Triton X-100. […] Then, after washing with PBST, the membrane was treated with ECL plus reagent (manufactured by GE Healthcare Bio-Sciences) and the luminescence was detected by a Lumino Image Analyzer. […]

PKCε migration from the cytoplasm to membranes (index of PKC activation) (2 hours after treatment): migrated from the cytoplasm to membranes | PKCε migration from the cytoplasm to membranes (index of PKC activation) (4 hours after treatment): migrated from the cytoplasm to membranes
SMILES: OC1CN(CCCOCCc2ccc3sccc3c2)C1 [T-817MA, 1-(3-(2-(1-benzothiophen-5-yl)ethoxy)propyl)azetidin-3-ol]
